Values of other authors as cited in US12201642B2, “Composition for the treatment of COVID-19” (priority 2020, dated 2025).

Key:
HCMV = details: cultures of smooth muscle cells

For `CC(=O)Oc1ccccc1C(=O)O` [Aspirin, Acetylsalicylic acid], the “reduction of the yield of HCMV (factor)” value (HCMV) is given as 2-3, the antiviral effectiveness (influenza A H1N1 virus) is given as “highly effective” and the toxic side-effects (influenza virus; as anti-influenza agent) is given as “no toxic side-effects”. For the same compound, the “effect on influenza virus replication” value (influenza virus; in vitro and in vivo) was “efficiently blocks influenza virus replication”.
